The target of test [1] is Jack bean (Canavalia ensiformis) urease (Canavalia ensiformis (Jack bean) (Dolichos ensiformis), UniProt P07374). The test is described as follows: biochemical. It counts as biochemical. The conditions noted are these: for urease inhibitory activity compared with standard thiourea: in words. The procedure:
The Schiff bases of thiazoles were evaluated for their urease inhibitory potential by using the following protocol:
Finally the results were processed by software SoftMax Pro (Molecular Devices, CA, USA), MS-Excel and Ez-fit. The Percent inhibition was calculated from the formula given below: 100−(OD of test compound/OD of control)×100
The IC50 values were then calculated using the EZ-Fit Enzyme Kinetics program (Perrella Scientific Inc., Amherst, U.S.A.).

The next test deals with jack bean urease (Canavalia ensiformis (Jack bean) (Dolichos ensiformis), UniProt P07374). The test is described as follows: biochemical. It counts as biochemical. Also noted: Vmax / Vmaxapp: unit not given here. The conditions noted are these: for Type of Inhibition: from Lineweaver-Burk plot; for Kmapp / Km: substrate urea; for Kmapp / Vmaxapp: in presence of inhibitor; for Km / Vmax: without inhibitor. Here is the method:
The Lineweaver-Burk plot was used to determine the type of inhibition, while Dixon plot and secondary replete were used for the determination of dissociation constants (Ki). The Ki, Km, and Vmax were determined by non-linear regression equation. The Ki value was determined from lineweaver-Burk plot. For the calculation of Ki values, initially the 1/Vmaxapp values were determine on y-axis of lineweaver-Burk plot at each junction point of lines of every inhibitor concentration. Secondly the slope of the inhibitor at concentration of each line were determined on Lineweaver-Burk plot and re-plotted against the inhibitor concentrations.
Graphs were plotted using GraFit program. Values of the correlation coefficients, slopes, intercepts, and their standard errors were obtained by the linear regression analysis using the same program. Each point in the constructed graphs represents the mean of the three experiments.
In mixed-type of inhibition, both Km and Vmax are affected.
Three different methods were applied to determine the type of inhibition and Ki values for these inhibitors. Firstly by using Lineweaver-Burk plots the reciprocal of the rate of the reaction were plotted against the reciprocal of substrate concentration to monitor the effect of inhibitor on both Km and Vmax. Secondly the secondary replots of Lineweaver-Burk plots were plotted to determine the Ki value. The Ki values were calculated by plotting the slope of each line in the Lineweaver-Burk plots against the different concentration of inhibitors.

[2] abbreviates: Jack bean urease, pH 6.8, 100 mM urea, 30° C., 15 min, read-out: IC50 ± SEM.
Where [3] appears, read: Table 2, jack bean urease, read-out: IC50.
[4] abbreviates: mean of triplicate, read-out: Ki ± S.E.M.

Entries after “also recorded” stand apart in the source; their conditions may differ. Where two headings read alike, the source gives them in different places.

Take `C(=Nc1nc(-c2ccccc2)cs1)c1c[nH]c2ccccc12` [Compound 2, N-[1H-indol-3-yl-methylidene]-N-(4-phenyl-1,3-thiazol-2-yl)amine]: the IC50 in test [1] (setting [2]) was 8.56 ± 0.027 µM; in test [1] (setting [3]), 8.5 µM. Also, the Ki on jack bean urease amounted to 9.6 ± 0.0024 µM.

In the case of `CCOc1cccc(C=Nc2nc(-c3ccccc3)cs2)c1O` [Compound 3, 2-Ethoxy-6-{[(4-phenyl-1,3-thiazol-2-yl)imino]methyl}phenol], the IC50 worked out at 7.9 µM in test [1] (IC50) and 7.9 ± 0.08 µM in test [1] (IC50 ± SEM). At jack bean urease, this compound gave a Ki of 9.7 ± 0.007 µM.

`COc1cccc(C=Nc2nc(-c3ccccc3)cs2)c1O` [Compound 6, 2-Methoxy-6-{[(4-phenyl-1,3-thiazol-2-yl)imino]methyl} phenol] yielded an IC50 in test [1] (IC50) of 8.8 µM. For the same compound, on jack bean urease, the Ki is 8.22 ± 0.0233 µM.

For the compound `Oc1ccc(Cl)cc1C=Nc1nc(-c2ccccc2)cs1` [Compound 8, 4-Chloro-2-{[(4-phenyl-1,3-thiazol-2-yl)imino]methyl} phenol], the half-maximal inhibitory concentration (IC50) was determined as 8.13 ± 0.02 µM in test [1] (setting [2]) and 8.1 µM in test [1] (setting [3]). This compound also yielded a Ki on jack bean urease of 7.89 ± 0.0142 µM.

Consider `Cc1ccc(C=Nc2nc(-c3ccccc3)cs2)o1` [Compound 10, N-[(5-Methyl-2-furyl)methylidene]-N-(4-phenyl-1,3-thiazol-2-yl)amine], for which the results for the IC50 in test [1] (setting [2]) and in test [1] (setting [3]) were 17.83 ± 0.07 µM and 17.8 µM, respectively. Further, the inhibitory constant (Ki) at jack bean urease worked out at 14.82 ± 0.0109 µM.

The compound `Oc1ccc(C=Nc2nc(-c3ccccc3)cs2)cc1` [Compound 12, 4-{[(4-Phenyl-1,3-thiazol-2-yl)imino]methyl}phenol] yielded an IC50 in test [1] (IC50 ± SEM) of 20.16 ± 0.07 µM.

For the compound `Oc1ccccc1C=Nc1nc(-c2ccccc2)cs1` [Compound 16, 2-{[(4-Phenyl-1,3-thiazol-2-yl)imino]methyl} phenol], the IC50 in test [1] (setting [2]) came to 12.4 ± 0.14 µM.

Take `C(=Nc1nc(-c2ccccc2)cs1)c1cccc2ccccc12` [Compound 21, N-[1-Naphthyl-methylidene]-N-(4-phenyl-1,3-thiazol-2-yl)amine]: the IC50 in test [1] (setting [2]) amounted to 23.06 ± 0.11 µM.

As for `Oc1cccc(C=Nc2nc(-c3ccccc3)cs2)c1O` [Compound 23, 3-{[(4-Phenyl-1,3-thiazol-2-yl)imino]methyl}-1,2-benzenediol], the IC50 in test [1] (IC50 ± SEM) was 19.63 ± 0.19 µM.

As to `NC(N)=S` [Thiourea, reference compound], at jack bean urease, the “Type of Inhibition” value was “Competitive inhibition”, the Kmapp turned out to be 7.38 mM and the Km was 2250 µM. For the same compound, at jack bean urease (setting [4]), the Ki worked out at 20.01 ± 0.02 µM.

As for “N-(4-Phenyl-1,3- thiazol-2-yl)-N-[4- pyridinylmethyl- idene]amine [Compound 5]”, the IC50 in test [1] (read-out: IC50) came to 7.6 µM. Moreover, the IC50 in test [1] (read-out: IC50 ± SEM) came out at 7.6 ± 0.08 µM. On jack bean urease, the “Type of Inhibition” value is given as “Competitive inhibition”, the Vmaxapp was 23.5, the Kmapp was determined as 5.09 mM and the Km worked out at 2250 µM. Besides, the Vmax on jack bean urease was determined as 21.64. Besides, the Ki at jack bean urease (setting [4]) worked out at 13.6 ± 0.0123 µM.

On to “N-[2,6-Dichloro- phenyl)methylidene]-N-(4- phenyl-1,3-thiazol- 2-yl)amine [Compound 25]”, for which the IC50 in test [1] (setting [2]) was 22.33 ± 0.11 µM. Also, the “urease inhibitory activity compared with standard thiourea” value in test [1] was “significant urease inhibitory activity, comparable to standard”.

On to “N-[2-Chloro- phenyl)methylidene]- N-(4-phenyl-1,3- thiazol-2-yl) amine [Compound 20]”, for which the IC50 in test [1] (setting [2]) turned out to be 13.03 ± 0.02 µM.

As to “N-[2-Fluorophenyl) methylidene]-N- (4-phenyl-1,3- thiazol-2-yl)amine [Compound 22]”, the IC50 in test [1] (setting [2]) came to 17.93 ± 0.07 µM.

As to “N-[2-Naphthylmethyl- idene]-N-(4-phenyl- 1,3-thiazol-2-yl)amine [Compound 7]”, the half-inhibitory concentration (IC50) in test [1] (setting [2]) turned out to be 9.33 ± 0.02 µM. Besides, the IC50 in test [1] (setting [3]) was found to be 9.33 µM. For the same compound, at jack bean urease, the “Type of Inhibition” value is on record as “Competitive inhibition”, the Vmaxapp is 29, the Kmapp was 6.28 mM and the Km was 2250 µM. The Vmax on jack bean urease is listed as 28.8. For the same compound, the inhibition constant Ki on jack bean urease (setting [4]) stood at 11.89 ± 0.004 µM.

Consider “N-[4-(Dimethylamino) phenyl]methylidene}-N- (4-phenyl-1,3-thiazol-2- yl)amine [Compound 14]”, for which the IC50 in test [1] (setting [2]) turned out to be 20.36 ± 0.11 µM.

With “N-[4-(Methylsulfanyl) phenyl]methylidene}-N- (4-phenyl-1,3-thiazol-2- yl)amine [Compound 18]”, in test [1] (setting [2]), the half-maximal inhibitory concentration (IC50) stood at 6.96 ± 0.054 µM.

In the case of “N-[4-Chlorophenyl) methylidene]-N-(4-phenyl- 1,3-thiazol-2-yl)amine [Compound 26]”, the concentration for half-maximal inhibition (IC50) in test [1] (setting [2]) turned out to be 19 ± 0.04 µM.

For the compound “N-[4-Ethoxyphenyl)methyl- idene]-N-(4-phenyl-1,3- thiazol-2-yl)amine [Compound 4]”, in test [1] (setting [3]), the IC50 came out at 11.2 µM. Further, at jack bean urease, the “Type of Inhibition” value is “mixed-type; also recorded: Mixed inhibition”, the Vmaxapp is on record as 12.85, the Kmapp is on record as 2.56 mM and the Km was found to be 2250 µM. At jack bean urease, the Vmax was determined as 23.47. For the same compound, the Ki on jack bean urease (setting [4]) worked out at 9.23 ± 0.018 µM.

As for “N-[4-Isopropylphenyl) methylidene]-N-(4- phenyl-1,3-thiazol-2- yl)amine [Compound 9]”, the IC50 in test [1] (setting [2]) was determined as 14.5 ± 0.16 µM. Moreover, the half-inhibitory concentration (IC50) in test [1] (setting [3]) worked out at 14.5 µM. In addition, at jack bean urease, the “Type of Inhibition” value is recorded as “mixed-type; also recorded: Mixed inhibition”, the Vmaxapp is listed as 8.72, the Kmapp came to 3.22 mM and the Km is 2200 µM. Further, on jack bean urease, the Vmax is recorded as 19. Further, the Ki on jack bean urease (setting [4]) was determined as 12.39 ± 0.0168 µM.

In the case of “N-[4-Methoxyphenyl) methylidene]-N-(4- phenyl-1,3-thiazol-2- yl)amine [Compound 13]”, the “urease inhibitory activity compared with standard thiourea” value in test [1] was “significant urease inhibitory activity, comparable to standard”.

Consider “N-[4-Nitrophenyl)methyl- idene]-N-(4-phenyl-1,3- thiazol-2-yl)amine [Compound 11]”, for which the IC50 in test [1] (setting [2]) came to 32.5 ± 0.02 µM. Further, the “urease inhibitory activity compared with standard thiourea” value in test [1] is “significant urease inhibitory activity, comparable to standard”.

As to “N-[Phenylmethyl- idene]-N-(4-phenyl- 1,3-thiazol-2-yl) amine [Compound 19]”, in test [1] (setting [2]), the IC50 amounted to 16.76 ± 0.054 µM.

The IC50 is the concentration needed to halve the response being measured. What is called Ki is the dissociation constant of the complex between target and ligand, obtained from inhibition or displacement. As a reminder, the Km is the substrate concentration at which the rate is half of its maximum.

These data come from patent publication US9447057B2, “Schiff bases of thiazoles: a new class of ureases inhibitors” (priority 2014, dated 2016).
